# Like-named read-outs stand apart in the source and are kept apart here.
# Tests used:
# TSPO [1] = test: Competition binding assay against ^3H-PK11195 in human brain homogenate (HAB, MAB, LAB); settings: for difference between HAB and LAB in individually calculated affinity values: unpaired t-test; for LAB:HAB affinity ratio: rs6971 polymorphism
# Experimental: (§1) All studies using human tissue were conducted in accordance with the East of Scotland Research Ethics Service (Edinburgh Brain Bank, 11/ES/0022). […] To exclude sex dependent differences in TSPO binding (Fairweather et al.), only male samples were utilized in this study. Sample tissues were homogenized in 10× w/v buffer (50 mM Tris-Base, pH 7.4, 4° C.) before centrifugation (32,000 g, 10 min, 4° C.). Tissue pellets were then resuspended in 10× w/v buffer and centrifuged again before re-suspending them in buffer (2 mL). Samples were then assessed for protein concentration using the Bio-Rad protein assay (Bio-Rad, USA), aliquoted and stored at −80° C. until use.
# (§2) Competition binding assays were carried out as previously reported (Blair et al. (Med. Chem. Commun.)). […] A concentration of 8 μM was used to determine non-specific binding for each ligand. Binding was terminated with the addition of 2 mL of ice cold buffer before being immediate filtered over a Whatman GF/B filters (Whatman, UK) pre-treated with 0.3% polyethylenimine (Sigma-Aldrich, USA) using a Brandel harvester (Brandel, USA). Filter paper was then removed, placed into 2.5 mL of Optiphase HiSafe 3 (Perkin Elmer, USA) and counted 48 hours later on a Hidex 300 SL (Hidex, Finland). […] All binding assays were performed in triplicate. GraphPad Prism version 6 (GraphPad Software, USA) was used to fit all binding affinity curves. A comparison of a one-site and two-site fitting was made using the least squares algorithm and model selection was compared using an F test. The null hypothesis (that one-site fitting as more suitable) was rejected if p<0.05. The mean % SB normalized to the minimum inhibition of each group (HAB, MAB or LAB) was used to determine whether a one-site or two-site fitting was appropriate, and to subsequently calculate LAB:HAB ratio. Affinity values (Ki) were calculated by fitting individual tissue samples based on the mean group fitting.
# TSPO [2] = test: Competition binding assay against ^3H-PK11195 in human heart homogenate (HAB, MAB, LAB); settings: for difference between HAB and LAB in individually calculated affinity values: unpaired t-test; for LAB:HAB ratio: rs6971 polymorphism
# Experimental: as §1, §2
# [3] = Pharmacokinetic/Pharmacodynamic study of PK11195 tissue exposure; assay type: in vivo; settings: Sprague-Dawley, rat, rats, mean±SEM, n=3, read-out: exposure level
# [4] = in humans; literature; cited from earlier work
# TSPO [5] = biological target: TSPO (Homo sapiens, UniProt P30536); test: Competition binding assay against ^3H-PK11195 in human brain homogenate (HAB, MAB, LAB); parameters: other: human brain; other: human heart
# Sequence of TSPO (Homo sapiens, UniProt P30536) (P30536 whole entry): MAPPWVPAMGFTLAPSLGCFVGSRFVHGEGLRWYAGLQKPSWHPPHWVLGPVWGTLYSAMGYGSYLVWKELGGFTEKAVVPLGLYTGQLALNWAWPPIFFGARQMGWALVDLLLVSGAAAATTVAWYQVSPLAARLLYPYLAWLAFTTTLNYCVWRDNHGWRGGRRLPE
# Experimental: as §1
# Competition binding assays were carried out as previously reported (Blair et al. (Med. Chem. Commun.)). […] A concentration of 8 μM was used to determine non-specific binding for each ligand. Binding was terminated with the addition of 2 mL of ice cold buffer before being immediate filtered over a Whatman GF/B filters (Whatman, UK) pre-treated with 0.3% polyethylenimine (Sigma-Aldrich, USA) using a Brandel harvester (Brandel, USA). Filter paper was then removed, placed into 2.5 mL of Optiphase HiSafe 3 (Perkin Elmer, USA) and counted 48 hours later on a Hidex 300 SL (Hidex, Finland). […] Affinity values (Ki) were calculated by fitting individual tissue samples based on the mean group fitting.
# TSPO [6] = settings: literature; cited from earlier work
# TSPO [7] = settings: literature (Ikawa et al.); cited from earlier work
Structure (SMILES),difference between HAB and LAB in individually calculated affinity values (TSPO [1]),difference between HAB and LAB in individually calculated affinity values (TSPO [2]),LAB:HAB affinity ratio (TSPO [1]),LAB:HAB ratio (TSPO [2]),other results
CCC(C)N(C)C(=O)c1cc2ccccc2c(-c2ccccc2Cl)n1 (centres unmarked) [PK11195],no significant difference,no significant difference,–,–,concentration at 1 h ([3]; brain): 0.011 ± 0.00199 µg/mL; concentration at 1 h ([3]; heart): 0.0293 ± 0.00393 µg/mL; concentration at 1 h ([3]; lungs): 0.0389 ± 0.00224 µg/mL
CCC(C)N(C)C(=O)c1cc2ccccc2c(-c2ccccc2Cl)n1 (centres unmarked) [^11C-PK11195],–,–,–,–,plasma free fraction [4]: 1-6%
"CC[C@@H](C)N(C)C(=O)c1nc2ccccc2c(-c2ccccc2)c1CF [LW223, (R)-(N-sec-Butyl)-3-fluoromethyl-N-methyl-4-phenylquinoline-2-carboxamide]",no significant difference,no significant difference,1,1,mean affinity relative to PK11195 (TSPO [5]): 2 times; Ki (TSPO [5]; read-out: mean affinity (Ki)): 0.6 nM
CCN(CC)C(=O)c1nc2ccccc2c(-c2ccccc2)c1CF [AB5186],significant difference,–,9,7,–
COc1ccccc1CN(C(C)=O)c1cnccc1Oc1ccccc1 [PBR28],significant difference,–,49,48,–
CC[C@@H](C)N([11CH3])C(=O)c1nc(-c2ccccc2Cl)c2ccccc2n1 [^11C-ER176],–,–,–,–,LAB:HAB ratio in vitro (TSPO [6]): 1.3; LAB:HAB ratio in vivo (TSPO [7]): around 3

# Reference: patent publication US12129235B2, “TSPO binders” (The University Court of the University of Glasgow, priority 2018, dated 2024)
